# Reference: ChEMBL document CHEMBL4610129, “Discovery of Novel Selective and Orally Bioavailable Phosphodiesterase-1 Inhibitors for the Efficient Treatment of Idiopathic Pulmonary Fibrosis” (J Med Chem, 2020)
# Active and inactive are the calls of the source. The rule behind the calls is not given here.
# Key:
# [1] = Solubility in pH 7.3 solution by HPLC analysis; type: physicochemical
# [2] = Solubility in pH 6 solution by HPLC analysis; type: physicochemical
# [3] = Oral bioavailability in Sprague-Dawley rat at 5 mg/kg; type: ADME, organism-based; details: in vivo
# Rattus norvegicus [4] = assay: Anti-pulmonary fibrosis activity in Sprague-Dawley rat model of BLM-induced idiopathic pulmonary fibrosis assessed as reduction in enhanced pause at 10 mg/kg, po dosed daily for 28 days by mka noninvasive pulmonary monitoring system based method; type: functional, organism-based
# Rattus norvegicus [5] = assay: Anti-pulmonary fibrosis activity in Sprague-Dawley rat model of BLM-induced idiopathic pulmonary fibrosis assessed as inhibition of alpha-SMA protein expression at 10 mg/kg, po dosed daily for 28 days by immunofluorescence staining analysis; type: functional, organism-based
# Cytochrome P450 3A4 [6] = biological target: T1, Cytochrome P450 3A4 (Homo sapiens, UniProt P08684); assay: Inhibition of human CYP3A4 using testosterone as substrate; type: ADME
# T1 sequence (P08684 whole entry): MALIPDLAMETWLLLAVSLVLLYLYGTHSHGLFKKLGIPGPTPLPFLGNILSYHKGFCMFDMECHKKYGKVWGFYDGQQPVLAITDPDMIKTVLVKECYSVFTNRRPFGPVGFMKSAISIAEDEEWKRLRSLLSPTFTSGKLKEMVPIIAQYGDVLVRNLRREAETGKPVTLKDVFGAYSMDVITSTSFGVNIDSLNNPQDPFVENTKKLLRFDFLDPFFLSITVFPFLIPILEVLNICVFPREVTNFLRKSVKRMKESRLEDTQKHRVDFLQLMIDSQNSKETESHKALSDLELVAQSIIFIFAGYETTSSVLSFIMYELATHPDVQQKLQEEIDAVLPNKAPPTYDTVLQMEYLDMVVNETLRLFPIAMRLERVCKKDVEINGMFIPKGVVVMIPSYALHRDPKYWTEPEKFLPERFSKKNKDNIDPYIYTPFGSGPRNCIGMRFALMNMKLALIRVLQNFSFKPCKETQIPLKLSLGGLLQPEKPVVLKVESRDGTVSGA
# Cytochrome P450 3A4 [7] = biological target: T1, Cytochrome P450 3A4; assay: Inhibition of human CYP3A4 using midazolam as substrate; type: ADME
# [8] = biological target: 3',5'-cyclic-AMP phosphodiesterase 4D (Homo sapiens, UniProt Q08499); assay: Inhibition of PDE4D2 (86 to 413 residues) (unknown origin) using [3H]-cAMP substrate incubated for 15 mins by liquid scintillation counting method relative to control
# Homo sapiens [9] = species on record: Homo sapiens; assay: Anti-pulmonary fibrosis activity in human HLF assessed as reduction in TGF-beta-induced myofibroblast differentiation by measuring reduction in alpha-SMA protein expression incubated for 48 hrs by Western blot analysis; type: functional
# [10] = biological target: Cone cGMP-specific 3',5'-cyclic phosphodiesterase subunit alpha' (Homo sapiens, UniProt P51160); assay: Inhibition of PDE6C (1 to 858 residues) (unknown origin) using [3H]-cGMP substrate incubated for 15 mins by liquid scintillation counting method relative to control
# [11] = biological target: cGMP-specific 3',5'-cyclic phosphodiesterase (Homo sapiens, UniProt O76074); assay: Inhibition of PDE5A1 (535 to 860 residues) (unknown origin) using [3H]-cGMP substrate incubated for 15 mins by liquid scintillation counting method relative to control
# [12] = AUC (0 to t) in Sprague-Dawley rat at 2.5 mg/kg, iv; type: ADME, organism-based; details: in vivo
# [13] = Unbound fraction in human plasma; type: ADME, cell-free
# Cytochrome P450 2D6 = Cytochrome P450 2D6 (Homo sapiens, UniProt P10635); assay: Inhibition of human CYP2D6; type: ADME
# Rattus norvegicus [14] = assay: Anti-pulmonary fibrosis activity in Sprague-Dawley rat model of BLM-induced idiopathic pulmonary fibrosis assessed as reduction in peak inspiratory flow at 10 mg/kg, po dosed daily for 28 days by mka noninvasive pulmonary monitoring system based method; type: functional, organism-based
# [15] = AUC (0 to infinity) in Sprague-Dawley rat at 5 mg/kg, po; type: ADME, organism-based; parameters: dose 5 mg/kg, time infinity, route oral; details: in vivo
# [16] = biological target: High affinity cAMP-specific and IBMX-insensitive 3',5'-cyclic phosphodiesterase 8A (Homo sapiens, UniProt O60658); assay: Inhibition of PDE8A1 (480 to 820 residues) (unknown origin) using [3H]-cAMP substrate incubated for 15 mins by liquid scintillation counting method relative to control
# Sequence of High affinity cAMP-specific and IBMX-insensitive 3',5'-cyclic phosphodiesterase 8A (O60658 whole entry, the tested form may be a part): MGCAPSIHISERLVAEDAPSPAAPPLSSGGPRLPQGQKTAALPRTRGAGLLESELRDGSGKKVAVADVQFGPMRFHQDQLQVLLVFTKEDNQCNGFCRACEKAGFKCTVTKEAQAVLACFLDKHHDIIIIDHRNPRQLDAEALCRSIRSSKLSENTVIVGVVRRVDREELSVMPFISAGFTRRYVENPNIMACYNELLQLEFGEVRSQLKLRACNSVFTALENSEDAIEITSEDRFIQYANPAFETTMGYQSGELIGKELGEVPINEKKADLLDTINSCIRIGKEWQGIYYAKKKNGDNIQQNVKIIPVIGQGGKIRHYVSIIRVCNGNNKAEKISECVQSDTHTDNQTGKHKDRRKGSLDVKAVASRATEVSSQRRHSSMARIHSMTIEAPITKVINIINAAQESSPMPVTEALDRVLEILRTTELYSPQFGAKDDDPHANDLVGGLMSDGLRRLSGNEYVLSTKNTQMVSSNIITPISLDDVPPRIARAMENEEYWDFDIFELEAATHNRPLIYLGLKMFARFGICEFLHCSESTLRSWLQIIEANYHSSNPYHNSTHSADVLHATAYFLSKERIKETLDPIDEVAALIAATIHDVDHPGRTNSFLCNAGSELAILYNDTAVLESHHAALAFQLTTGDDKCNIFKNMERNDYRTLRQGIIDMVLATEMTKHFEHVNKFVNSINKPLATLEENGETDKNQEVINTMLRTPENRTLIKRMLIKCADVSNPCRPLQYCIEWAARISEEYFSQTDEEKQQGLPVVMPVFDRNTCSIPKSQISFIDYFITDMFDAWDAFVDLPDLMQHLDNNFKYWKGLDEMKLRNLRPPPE
# Rattus norvegicus [17] = assay: Anti-pulmonary fibrosis activity in Sprague-Dawley rat model of BLM-induced idiopathic pulmonary fibrosis assessed as inhibition of collagen deposition at 10 mg/kg, po dosed daily for 28 days by Masson staining based assay; type: functional, organism-based
# [18] = AUC (0 to t) in Sprague-Dawley rat at 5 mg/kg, po; type: ADME, organism-based; details: in vivo
# Cytochrome P450 2C9 = Cytochrome P450 2C9 (Homo sapiens, UniProt P11712); assay: Inhibition of human CYP2C9; type: ADME
# [19] = MRT (0 to t) in Sprague-Dawley rat at 2.5 mg/kg, iv; type: ADME, organism-based; details: in vivo
# [20] = Half life in Sprague-Dawley rat at 2.5 mg/kg, iv; type: ADME, organism-based; details: in vivo
# [21] = Acute toxicity in mouse; type: organism-based; details: in vivo
# [22] = biological target: cGMP-inhibited 3',5'-cyclic phosphodiesterase 3A (Homo sapiens, UniProt Q14432); assay: Inhibition of PDE3A (679 to 1087 residues) (unknown origin) using [3H]-cAMP substrate incubated for 15 mins by liquid scintillation counting method relative to control
# Sequence of cGMP-inhibited 3',5'-cyclic phosphodiesterase 3A (Q14432 whole entry, the tested form may be a part): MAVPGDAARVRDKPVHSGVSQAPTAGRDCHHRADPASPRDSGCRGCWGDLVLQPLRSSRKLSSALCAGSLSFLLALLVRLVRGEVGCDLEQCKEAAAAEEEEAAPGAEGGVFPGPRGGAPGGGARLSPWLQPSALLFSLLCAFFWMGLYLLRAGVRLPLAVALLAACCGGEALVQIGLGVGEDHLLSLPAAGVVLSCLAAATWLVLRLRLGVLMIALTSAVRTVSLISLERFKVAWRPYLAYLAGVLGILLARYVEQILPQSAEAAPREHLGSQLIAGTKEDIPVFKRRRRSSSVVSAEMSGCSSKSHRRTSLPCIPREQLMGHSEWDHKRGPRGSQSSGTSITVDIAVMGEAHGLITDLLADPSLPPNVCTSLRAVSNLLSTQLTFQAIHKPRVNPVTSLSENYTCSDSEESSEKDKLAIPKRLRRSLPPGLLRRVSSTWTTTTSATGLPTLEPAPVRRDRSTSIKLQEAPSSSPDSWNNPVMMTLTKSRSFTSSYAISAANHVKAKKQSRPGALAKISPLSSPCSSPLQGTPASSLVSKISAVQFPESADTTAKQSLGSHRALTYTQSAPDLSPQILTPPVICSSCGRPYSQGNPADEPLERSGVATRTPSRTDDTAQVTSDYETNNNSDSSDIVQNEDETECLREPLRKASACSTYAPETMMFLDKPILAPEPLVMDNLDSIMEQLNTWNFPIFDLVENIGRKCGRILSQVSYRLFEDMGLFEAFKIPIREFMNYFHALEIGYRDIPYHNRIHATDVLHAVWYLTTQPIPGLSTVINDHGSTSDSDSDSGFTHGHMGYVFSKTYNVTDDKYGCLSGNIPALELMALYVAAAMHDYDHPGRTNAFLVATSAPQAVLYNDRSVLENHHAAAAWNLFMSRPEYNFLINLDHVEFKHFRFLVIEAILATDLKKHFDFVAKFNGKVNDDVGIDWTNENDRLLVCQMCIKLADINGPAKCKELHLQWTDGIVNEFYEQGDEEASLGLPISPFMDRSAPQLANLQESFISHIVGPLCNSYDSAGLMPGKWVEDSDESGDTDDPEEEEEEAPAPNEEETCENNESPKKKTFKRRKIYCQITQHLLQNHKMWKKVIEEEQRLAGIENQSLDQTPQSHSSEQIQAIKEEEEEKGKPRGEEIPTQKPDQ
# [23] = Tmax in Sprague-Dawley rat at 5 mg/kg, po; type: ADME, organism-based; details: in vivo
# [24] = biological target: High affinity 3',5'-cyclic-AMP phosphodiesterase 7A (Homo sapiens, UniProt Q13946); assay: Inhibition of PDE7A1 (130 to 482 residues) (unknown origin) using [3H]-cAMP substrate incubated for 15 mins by liquid scintillation counting method relative to control
# Sequence of High affinity 3',5'-cyclic-AMP phosphodiesterase 7A (Q13946 whole entry, the tested form may be a part): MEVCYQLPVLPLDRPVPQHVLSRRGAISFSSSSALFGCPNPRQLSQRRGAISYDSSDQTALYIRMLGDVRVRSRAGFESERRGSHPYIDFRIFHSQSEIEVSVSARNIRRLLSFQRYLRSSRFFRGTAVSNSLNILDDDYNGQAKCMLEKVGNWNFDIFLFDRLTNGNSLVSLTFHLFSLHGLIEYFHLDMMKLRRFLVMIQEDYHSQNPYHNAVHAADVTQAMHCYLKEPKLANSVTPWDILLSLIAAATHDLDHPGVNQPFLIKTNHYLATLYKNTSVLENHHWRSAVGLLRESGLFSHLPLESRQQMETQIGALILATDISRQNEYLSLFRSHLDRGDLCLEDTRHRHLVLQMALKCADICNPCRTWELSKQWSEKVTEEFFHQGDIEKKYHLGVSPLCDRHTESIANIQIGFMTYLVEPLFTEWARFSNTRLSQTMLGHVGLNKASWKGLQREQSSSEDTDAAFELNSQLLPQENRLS
# [25] = biological target: cAMP and cAMP-inhibited cGMP 3',5'-cyclic phosphodiesterase 10A (Homo sapiens, UniProt Q9Y233); assay: Inhibition of PDE10A (449 to 770 residues) (unknown origin) using [3H]-cAMP substrate incubated for 15 mins by liquid scintillation counting method relative to control
# Sequence of cAMP and cAMP-inhibited cGMP 3',5'-cyclic phosphodiesterase 10A (Q9Y233 whole entry, the tested form may be a part): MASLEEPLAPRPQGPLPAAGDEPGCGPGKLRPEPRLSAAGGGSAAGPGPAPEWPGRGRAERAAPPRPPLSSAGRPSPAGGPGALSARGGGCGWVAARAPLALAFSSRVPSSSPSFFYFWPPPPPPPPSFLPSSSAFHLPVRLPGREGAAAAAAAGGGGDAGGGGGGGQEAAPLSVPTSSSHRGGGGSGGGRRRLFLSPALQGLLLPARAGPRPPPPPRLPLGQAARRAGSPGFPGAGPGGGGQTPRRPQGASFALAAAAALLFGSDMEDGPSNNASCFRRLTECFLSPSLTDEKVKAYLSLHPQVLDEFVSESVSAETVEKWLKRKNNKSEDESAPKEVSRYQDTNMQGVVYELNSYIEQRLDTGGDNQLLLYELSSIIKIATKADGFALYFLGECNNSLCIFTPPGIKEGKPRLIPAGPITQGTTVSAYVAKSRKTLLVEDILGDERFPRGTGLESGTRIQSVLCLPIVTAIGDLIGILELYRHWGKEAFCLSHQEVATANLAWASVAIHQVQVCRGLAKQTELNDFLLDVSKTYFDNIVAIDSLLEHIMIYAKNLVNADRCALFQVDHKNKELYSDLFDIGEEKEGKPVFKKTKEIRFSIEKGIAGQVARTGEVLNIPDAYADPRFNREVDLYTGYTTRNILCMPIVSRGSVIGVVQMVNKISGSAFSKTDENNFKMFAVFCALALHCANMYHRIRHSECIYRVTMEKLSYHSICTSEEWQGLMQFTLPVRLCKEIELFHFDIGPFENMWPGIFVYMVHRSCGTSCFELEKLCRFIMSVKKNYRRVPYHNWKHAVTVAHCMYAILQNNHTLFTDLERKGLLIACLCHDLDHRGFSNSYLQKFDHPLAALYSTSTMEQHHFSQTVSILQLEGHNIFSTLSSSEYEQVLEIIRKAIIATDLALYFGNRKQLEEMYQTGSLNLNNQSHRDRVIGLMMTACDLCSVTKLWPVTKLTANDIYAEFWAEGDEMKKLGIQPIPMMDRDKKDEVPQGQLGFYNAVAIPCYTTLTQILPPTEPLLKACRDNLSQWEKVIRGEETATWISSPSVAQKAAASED
# Rattus norvegicus [26] = assay: Anti-pulmonary fibrosis activity in Sprague-Dawley rat model of BLM-induced idiopathic pulmonary fibrosis assessed as inhibition of alpha-SMA protein expression at 10 mg/kg, po dosed daily for 28 days by Western blot analysis; type: functional, organism-based
# [27] = biological target: High affinity cGMP-specific 3',5'-cyclic phosphodiesterase 9A (Homo sapiens, UniProt O76083); assay: Inhibition of PDE9A2 (181 to 506 residues) (unknown origin) using [3H]-cGMP substrate incubated for 15 mins by liquid scintillation counting method relative to control
# Rattus norvegicus [28] = assay: Anti-pulmonary fibrosis activity in Sprague-Dawley rat model of BLM-induced idiopathic pulmonary fibrosis assessed as reduction in end-expiratory pause at 10 mg/kg, po dosed daily for 28 days by mka noninvasive pulmonary monitoring system based method; type: functional, organism-based
# Homo sapiens [29] = species on record: Homo sapiens; assay: Anti-pulmonary fibrosis activity in human HLF assessed as reduction in TGF-beta-induced myofibroblast differentiation by measuring reduction in alpha-SMA protein expression incubated for 48 hrs by immunofluorescence staining analysis; type: functional
# Rattus norvegicus [30] = assay: Anti-pulmonary fibrosis activity in Sprague-Dawley rat model of BLM-induced idiopathic pulmonary fibrosis assessed as reduction in peak expiratory flow at 10 mg/kg, po dosed daily for 28 days by mka noninvasive pulmonary monitoring system based method; type: functional, organism-based
# Homo sapiens [31] = species on record: Homo sapiens; assay: Anti-pulmonary fibrosis activity in human HLF assessed as reduction in TGF-beta-induced myofibroblast differentiation by measuring reduction in fibronectin protein expression incubated for 48 hrs by immunofluorescence staining analysis; type: functional
# Rattus norvegicus [32] = assay: Anti-pulmonary fibrosis activity in Sprague-Dawley rat model of BLM-induced idiopathic pulmonary fibrosis assessed as reduction in lung structural damage at 10 mg/kg, po dosed daily for 28 days by H and E staining based assay; type: functional, organism-based
# Rattus norvegicus [33] = assay: Anti-pulmonary fibrosis activity in Sprague-Dawley rat model of BLM-induced idiopathic pulmonary fibrosis assessed as reduction in end-inspiratory pause at 10 mg/kg, po dosed daily for 28 days by mka noninvasive pulmonary monitoring system based method; type: functional, organism-based
# [34] = Half life in Sprague-Dawley rat at 5 mg/kg, po; type: ADME, organism-based; details: in vivo
# [35] = AUC (0 to infinity) in Sprague-Dawley rat at 2.5 mg/kg, iv; type: ADME, organism-based; parameters: dose 2.5 mg/kg, time infinity, route intravenous; details: in vivo
# [36] = biological target: cGMP-dependent 3',5'-cyclic phosphodiesterase (Homo sapiens, UniProt O00408); assay: Inhibition of PDE2A (580 to 919 residues) (unknown origin) using [3H]-cGMP substrate incubated for 15 mins by liquid scintillation counting method relative to control
# Sequence of cGMP-dependent 3',5'-cyclic phosphodiesterase (O00408 whole entry, the tested form may be a part): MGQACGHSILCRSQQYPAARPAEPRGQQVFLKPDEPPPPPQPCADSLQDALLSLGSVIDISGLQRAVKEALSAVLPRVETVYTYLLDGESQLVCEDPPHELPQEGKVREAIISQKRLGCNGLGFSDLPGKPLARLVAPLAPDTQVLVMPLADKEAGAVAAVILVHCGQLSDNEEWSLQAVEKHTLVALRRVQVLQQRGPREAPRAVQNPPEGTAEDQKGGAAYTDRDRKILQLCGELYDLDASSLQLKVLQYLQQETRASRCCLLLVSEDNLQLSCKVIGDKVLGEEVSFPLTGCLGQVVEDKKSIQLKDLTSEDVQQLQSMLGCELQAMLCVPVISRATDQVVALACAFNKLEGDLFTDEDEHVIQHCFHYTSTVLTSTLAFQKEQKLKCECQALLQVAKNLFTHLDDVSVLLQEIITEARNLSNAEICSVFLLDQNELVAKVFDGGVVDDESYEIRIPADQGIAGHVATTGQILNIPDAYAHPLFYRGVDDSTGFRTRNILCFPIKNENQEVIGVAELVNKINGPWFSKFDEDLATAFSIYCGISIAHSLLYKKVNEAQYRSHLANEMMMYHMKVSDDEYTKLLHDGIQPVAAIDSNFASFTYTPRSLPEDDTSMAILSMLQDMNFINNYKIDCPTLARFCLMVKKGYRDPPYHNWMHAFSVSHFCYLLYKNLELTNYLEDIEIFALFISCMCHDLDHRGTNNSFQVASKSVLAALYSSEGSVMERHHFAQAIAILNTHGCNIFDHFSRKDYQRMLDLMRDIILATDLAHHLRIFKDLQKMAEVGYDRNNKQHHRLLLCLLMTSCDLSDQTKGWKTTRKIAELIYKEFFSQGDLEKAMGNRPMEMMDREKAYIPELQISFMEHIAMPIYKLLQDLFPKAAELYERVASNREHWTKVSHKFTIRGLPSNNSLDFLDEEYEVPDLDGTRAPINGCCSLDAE
structure (smiles),measurement,setting,value
C[C@@H](Nc1nc2c(cnn2C(C)(C)C)c(=O)n1Cc1ccc(F)cc1)c1ccc(Cl)cc1,solubility,[1],22 µg/mL
same,solubility,[2],16 µg/mL
same,bioavailability,[3],34%
same,Activity,Rattus norvegicus [4],Active
same,Activity,Rattus norvegicus [5],Active
same,IC50,Cytochrome P450 3A4 [6],> 25 µM
same,IC50,Cytochrome P450 3A4 [7],> 25 µM
same,IC50,[8],0.699 µM
same,Activity,Homo sapiens [9],Dose-dependent effect
same,IC50,[10],> 10 µM
same,IC50,[11],0.37 µM
same,AUC(0-t),[12],1930 ng·h/mL
same,Fu,[13],0.1%
same,IC50,Cytochrome P450 2D6,> 25 µM
same,Activity,Rattus norvegicus [14],Active
same,AUC(0-inf),[15],1320 ng·h/mL
same,IC50,[16],2.02 µM
same,Activity,Rattus norvegicus [17],Active
same,AUC(0-t),[18],1300 ng·h/mL
same,IC50,Cytochrome P450 2C9,6.6 µM
same,MRT last,[19],5.81 h
same,half-life,[20],5.5 h
same,MTD,[21],> 1500 mg/kg
same,IC50,[22],> 10 µM
same,Tmax,[23],4 h
same,IC50,[24],> 10 µM
same,IC50,[25],1.77 µM
same,Activity,Rattus norvegicus [26],Active
same,IC50,[27],> 10 µM
same,Activity,Rattus norvegicus [28],Active
same,Activity,Homo sapiens [29],Dose-dependent effect
same,Activity,Rattus norvegicus [30],Active
same,Activity,Homo sapiens [31],Dose-dependent effect
same,Activity,Rattus norvegicus [32],Active
same,Activity,Rattus norvegicus [33],Active
same,half-life,[34],3.7 h
same,AUC(0-inf),[35],2100 ng·h/mL
same,IC50,[36],> 10 µM
